{"source": "patent US9907763B2", "about": "“Method of treating or preventing the visual function loss by using 4-(phenylsulfanyl)butane-2-one (4-PSB-2)” (NATIONAL SUN YAT-SEN UNIVERSITY, priority 2016, dated 2018)", "key": {"[1]": {"tested_on": "RGCs", "test": "Retrograde Fluoro-Gold labeling of RGCs and RGC densities after optic nerve crush", "assay_type": "in vivo, Wistar rats", "settings": "two weeks after ON crush", "protocol": "(§1) Forty five adult male Wistar rats weighing 150-180 g (7-8 weeks old) were used and grouped (Table 1). All manipulations were performed with animals under general anesthesia induced by an intramuscular injection of a mixture of ketamine (40 mg/kg body weight (BW)) and xylazine (4 mg/kg BW). In addition, topical 0.5% Alcaine eye drops (Alcon, Puurs, Belgium) were used to perform topical anesthesia.\n(§2) After general anesthesia and topical Alcaine eye drop application, the ON was exposed and isolated. Care was taken to avoid damaging the small vessels around the ON. A vascular clip (60 g micro-vascular clip) was then applied to the ON 2 mm posterior to the globe for 30 seconds. After the surgery, Tobradex eye ointment (Alcon, Puurs, Belgium) was administered. The rats were kept on electric heating pads at 37° C. for recovery. The control group received a sham operation that entailed ON exposure without the crush. 4-PSB-2 (5 mg/kg in 0.2 mL phosphate-buffered saline) or phosphate buffered saline (PBS control) was immediately administered after ON crush once by subcutaneous injection.\nWith this technique, only the RGCs with intact axons projected to the SC were labeled with FG. The procedure was performed based on Chang et al (Exp. Eye Res., 2004, 118, 109-116). Briefly, one week before sacrificing, the rats were anesthetized using a ketamine (100 mg/kg) and Xylazine (10 mg/kg) mixture, and then placed in a stereotactic apparatus. […] One week after labeling, the eyeballs were harvested after euthanasia of the animals. The eyeballs were placed in 10% formalin and iii the whole retina was then carefully dissected, flattened. The retina was examined with a 400× epi-fluorescence microscope equipped with a filter set (excitation filter=350-400 nm; barrier filter=515 nm), as well as a digital camera and software. The retinas were examined for RGCs at a distance of 1 or 3 mm from the optic nerve head in order to provide the central and mid-peripheral RGC densities respectively (FIG. 1A). RGCs were counted in eight areas randomly of […]/each in the central (about 40% of the central area) (FIG. 1B), and eight areas randomly of 38,250 mm^2/each in the mid-peripheral (about 30% of the mid-periphery) regions of each retina. The averages of these areas were taken as the mean density of RGCs per retina. RGC survival percentage was defined as the number of RGCs in each treatment group divided by the number of RGCs in the sham operated retina, multiplied by 100."}, "[2]": {"tested_on": "Wistar rats", "test": "Flash visual-evoked potentials (FVEPs) after optic nerve crush", "assay_type": "in vivo", "settings": "2 weeks after ON crush; 5 mg/kg s.c. once; n=6; sham 83±3 ms, PBS 154±23 ms", "protocol": "as §1, §2\nFor the functional evaluation of the ON, FVEPs were recorded 2 weeks after ON crush in 18 experimental rats. […]"}, "[3]": {"tested_on": "RGC layer", "test": "TUNEL assay in retinal sections after optic nerve crush", "assay_type": "in vivo, Wistar rats", "settings": "RGC layer of retina; two weeks after ON crush; 5 mg/kg s.c. once; n=6; sham 2.0±1.7, PBS 14.8±6.5", "protocol": "as §1\nas §2, with “4-PSB-2 (5 mg/kg in 0.2 mL phosphate-buffered saline) or phosphate buffered saline (PBS control) was immediately administered after ON crush once by subcutaneous injection.” left out\nTo ensure the use of equivalent fields for comparison, all retinal frozen sections were prepared with retinas at 1-2 mm distance from the optic nerve head. […] The TUNEL positive cells in the RGC layer of each sample were counted in ten high powered fields (HPF, ×400 magnification), and three sections per eye were averaged."}, "[4]": {"tested_on": "ED1 (CD68, a marker of macrophage/microglia)", "test": "Immunohistochemistry of ED1 in the ONs after optic nerve crush", "assay_type": "in vivo, Wistar rats", "settings": "lesion site of ON; two weeks after ON crush; 5 mg/kg s.c. once; n=6; sham 4.3±2.5, PBS 67.3±21.1", "protocol": "as §1\n(§3) After general anesthesia and topical Alcaine eye drop application, the ON was exposed and isolated. Care was taken to avoid damaging the small vessels around the ON. A vascular clip (60 g micro-vascular clip) was then applied to the ON 2 mm posterior to the globe for 30 seconds. After the surgery, Tobradex eye ointment (Alcon, Puurs, Belgium) was administered. The rats were kept on electric heating pads at 37° C. for recovery. […]\n(§4) IHC of ED1 (CD68, a marker of macrophage/microglia) in the ONs and IHC of CD11b, iNOS and COX-2 in the retina using monoclonal antibodies (ED1, 1:50; CD11b, 1:20; AbD Serotec, Oxford, UK) or polyclonal antibodies (iNOS, 1:50; Cell signaling Inc. Beverly, Mass., USA; COX-2, 1:50; Santa Cruz, Calif., USA) were performed. […] For comparison, ED1 positive cells were counted in six HPF at the lesion site of ON (six rats in each group). Cd11b positive cells were counted in six HPF and three sections per eye were averaged."}, "[5]": {"tested_on": "Cd11b", "test": "Immunohistochemistry of Cd11b in the retina after optic nerve crush", "assay_type": "in vivo, Wistar rats", "settings": "two weeks after ON crush, 5 mg/kg s.c. once, n=6, sham 2.3±1.7, PBS 40.0±9.7", "protocol": "as §1, §3, §4"}, "[6]": {"tested_on": "iNOS", "test": "Immunoblotting and immunohistochemical analysis of iNOS expression in the retina after ON crush", "assay_type": "in vivo, Wistar rats", "settings": "two weeks after ON crush, 5 mg/kg s.c. once, ratio to GAPDH, n=3, result in words", "protocol": "as §1, §3\nas §4, with “averaged. […]” for “averaged.”"}, "[7]": {"tested_on": "COX-2", "test": "Immunoblotting and immunohistochemical analysis of COX-2 expression in the retina after ON crush", "assay_type": "in vivo, Wistar rats", "settings": "two weeks after ON crush, 5 mg/kg s.c. once, ratio to GAPDH, n=3, result in words", "protocol": "as §1, §3\nas §4, with “averaged. […]” for “averaged.”"}}, "data": [{"smiles": "CC(=O)CCSc1ccccc1", "note": "[4-PSB-2, 4-(phenylsulfanyl)butan-2-one]", "values": [{"measurement": "densities of RGCs in the central retina", "setting": "[1]; central retina, 5 mg/kg once by subcutaneous injection immediately after crush, n=6", "value": "1342±473 /mm^2"}, {"measurement": "RGC survival, central retina", "setting": "[1]; central retina, relative to sham operated retina, 5 mg/kg s.c. once", "value": 56.8, "unit": "% survival"}, {"measurement": "RGC survival rate increase as compared to the PBS-treated group, central retina", "setting": "[1]; central retina, vs PBS-treated group, p<0.05", "value": "approximately 35.7%"}, {"measurement": "densities of RGCs in mid-peripheral retina", "setting": "[1]; mid-peripheral retina, 5 mg/kg once by subcutaneous injection immediately after crush, n=6", "value": "915±244 /mm^2"}, {"measurement": "RGC survival, mid-peripheral retina", "setting": "[1]; mid-peripheral retina, relative to sham operated retina, 5 mg/kg s.c. once", "value": 65.3, "unit": "% survival"}, {"measurement": "RGC survival rate increase as compared to the PBS-treated group, mid-peripheral retina", "setting": "[1]; mid-peripheral retina, vs PBS-treated group, p<0.05", "value": "~35.3", "unit": "%"}, {"measurement": "latency of the P1 wave (FVEP)", "setting": "[2]", "value": "118 ± 14", "unit": "ms"}, {"measurement": "TUNEL positive cells in the RGC layer", "setting": "[3]", "value": "6.7±3.4", "unit": "positive cells/HPG"}, {"measurement": "ED1 positive cells/HPF", "setting": "[4]", "value": "33.5±14.5", "unit": "positive cells/HPF"}, {"measurement": "Cd11b positive cells/HPF", "setting": "[5]", "value": "17.3±5.9", "unit": "positive cells/HPF"}, {"measurement": "iNOS expression in the retina", "setting": "[6]", "value": "prevented the increase"}, {"measurement": "COX-2 expression in the retina", "setting": "[7]", "value": "prevented the increase"}]}]}
